From BindingDB's records for patent US11220486 (LA JOLLA INSTITUTE OF ALLERGY & IMMUNOLOGY; SANFORD BURNHAM …, 2022)

Biological target: T1, Low molecular weight phosphotyrosine protein phosphatase (Homo sapiens, UniProt P24666)
T1 sequence (P24666 whole entry): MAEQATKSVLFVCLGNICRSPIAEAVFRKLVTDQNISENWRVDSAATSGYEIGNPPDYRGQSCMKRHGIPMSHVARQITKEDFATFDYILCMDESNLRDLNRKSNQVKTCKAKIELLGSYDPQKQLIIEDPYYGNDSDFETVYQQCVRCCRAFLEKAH
Assay: LMPTP Primary Screening Protocol
Description: A listing of materials is provided: Item, source, catalog no. […] Prepare Reagents as described in section F. Recipe. 2. Using LabCyte Echo, transfer 60 nL from 2 mM test compound source plate into assay plate Col. 5-48 (final concentration of test compounds is 20 μM). 60 nL of DMSO should be transferred to col. 1-4 for positive and negative control wells. 3. Spin plates at 1000 rpm for 1 minute in centrifuge. 4. Using the Beckman Coulter Bioraptr, add 3 μL/well of control buffer to columns 1 and 2. 5. Using the Bioraptr, add 3 μL/well of enzyme solution to col. 3-48. 6. Using the Bioraptr, add 3 μL/well of substrate solution to col. 1-48. 7. Spin plates at 1000 rpm for 1 minute in centrifuge. 8. Incubate plates in the dark at room temperature for 50 minutes. 9. Read plates on PerkinElmer Viewlux using a FI protocol.

IC50: > 5 µM
Compound: CC(C)(C)OC(=O)C1(c2cc(NCCCC3CCCNC3)c3ccccc3n2)C=c2ccccc2=N1 (stereo unspecified) [US11220486, Compound I98]
